Consider 16 compounds from US8716285B2, “N-hydroxy-benzamids for the treatment of cancer” (Hoffmann-La Roche Inc., priority 2010, dated 2014).

Experiment [1] relates to p21 promoter-luciferase construct. In words: p21 reporter gene induction in HeLa cells transfected with p21 promoter-luciferase construct. The note with it: for p21 RP3: relative gene level of p21 induced compared to MS275 at 3 μM; for p21 RP10: relative level of p21 induced compared to MS275 at 10 μM; for p21 RP30: relative level of p21 induced compared to MS275 at 30 μM. The format is cell-based. The procedure:
As a surrogate for in-cell HDAC1/2/3 inhibition, p21 induction was used as a counterscreen to evaluate the selectivity of the compounds in the present invention toward HDAC6 or HDAC8.
The novel compounds of the present invention were tested for their ability to induce p21 gene expression using a reporter gene assay involving HeLa cells transfected with a p21 promoter-luciferase construct. The p21 promoter contained the Sp1/Sp3 binding site for HDAC but not the upstream p53 binding site. Briefly, the day before transfection, HeLa cells were seeded at 11,000 cells/well in a 96-well culture plate and incubated at 37° C. in 5% CO2 overnight. A transfection media was prepared prior to transfection according to the following procedure: (1) 5 μl serum-free DMEM, 0.15 μl Fugene 6 reagent, 40 ng p21-luc, 10 ng GFP were mixed gently and incubated at rt for 30 minutes; (2), then 98 μl DMEM (with 10% FBS, 1% penicillin and streptomycin) was added to the DNA: Fugene 6 reagent complex and mixed gently. For transfection, the medium was removed and replaced with 100 μl/well transfection media which was prepared according to the procedure above. After incubating the cells for 24 hours at 37° C. in 5% CO2, fresh media and test compounds were added to the wells and the cells further incubated for 15 hours at 37° C. in 5% CO2. Cells were lysed by adding 80 μl/well of a cell culture lysis reagent (Promega). […] 100 μl luciferase assay reagent (Promega) was then added to every 20 μl cell lysate for luminometer detection. […] Induction activity for specific representative compounds can be found in Table 3.
In general terms: A reporter such as luciferase makes a cellular process visible.

Another experiment deals with HDAC6 (Homo sapiens (Human), UniProt Q9UBN7). In words: Tubulin acetylation cytoblot assay (A549 cells). The format is cell-based. The note with it: 17-18 h, concentration for 50% induction of acetylated tubulin, read-out: Tub-ac EC50. How it is done:
Tubulin acetylation is a PD marker for HDAC6 inhibition. The extent of tubulin acetylation represents the inhibitory effect on HDAC6.
Novel compounds were tested for their ability to inhibit HDAC6 using a cell-based deacetylation assay. Tubulin acetylation was detected by the anti-acetylated tubulin antibody (Sigma) and horse radish peroxidase (HRP) conjugated secondary antibody (KangChen Bio. Tech.). […] 20 μl of diluted compound solution was transferred to the cell culture plate and incubated for 17-18 h. After medium removal and fixation by formaldehyde (3.7% paraformaldehyde in TBS), the cells in the plates were treated with 180 μl of −20° C. MeOH and incubated for 5 min at rt. The cell lysis was incubated with 75 μl of primary anti-acetylated tubulin antibody and secondary HRP conjugated antibody solution (1:750 anti-acetylated tubulin, 1:750 HRP conjugated anti-mouse IgG in antibody dilution buffer not containing sodium azide) for 4 h at 4° C. By adding the HRP substrate, enhanced chemiluminescence (ECL) reagent (GE Healthcare) generated luminescence corresponding to the level of tubulin acetylation. So that 75 μl of ECL was added into the wells and the luminescence from each well was immediately quantified by the plate reader. Based on the luminescence reading, the IC50s against HDAC6 of the tested compounds were calculated by plotting the curve with XLfit4.0 software. Inhibition %=[signal(sample)−Mean(bottom)]*100/[Mean(top)−Mean(bottom)]

A further experiment concerns the target recombinant human HDAC8 (Homo sapiens (Human), UniProt Q9BY41). The experiment in a line: HDAC8 inhibition: recombinant HDAC8 fluorometric assay. In kind it is biochemical. The note with it: recombinant human HDAC8, substrate Ac-Arg-His-Lys-Lys(ε-acetyl)-AMC. The procedure:
A competitive inhibitory assay of HDAC8 was carried out by using recombinant HDAC8 and a commercial substrate Ac-Arg-His-Lys-Lys(ε-acetyl)-AMC.
Compounds were tested for their ability to inhibit histone deacetylase 8 using an in vitro deacetylation assay. The enzyme source for this assay was recombinant human HDAC8 protein expressed and purified from insect cells. […] The substrate consisted of a commercial product Ac-Arg-His-Lys-Lys(ε-acetyl)-AMC (substrate is available from Cayman Chemical). […] In a detailed procedure, 8 μl of HDAC8 enzyme solution (0.125 μg/μl) was transferred to assay plates (CORNING 3676). 1 μl of half-log diluted compounds were added into wells and incubated for 15 min at rt. After that, 8 μl of substrate solution was transferred to the wells and incubated for 30 min at rt. After deacetylation of the substrate by incubation with HDAC8 enzyme, subsequent exposure to a developing reagent produced a fluorophore that was directly proportional to the level of deacetylation. So 4 μl of developer regent (Cayman 10006394) was added into the wells in the assay plates and incubated for 15 min. The fluorescence signal was measured by a FlexStation3 plate reader (excitation wave length 340-360 nm; emission wave length 440-465 nm). The IC50 was calculated after normalization and curve fitting using XLfit4.0 software. Inhibition %=[Mean(top)−signal(sample)]*100/[Mean(top)−Mean(bottom)].

recombinant human HDAC8, sequence (Q9BY41 whole entry): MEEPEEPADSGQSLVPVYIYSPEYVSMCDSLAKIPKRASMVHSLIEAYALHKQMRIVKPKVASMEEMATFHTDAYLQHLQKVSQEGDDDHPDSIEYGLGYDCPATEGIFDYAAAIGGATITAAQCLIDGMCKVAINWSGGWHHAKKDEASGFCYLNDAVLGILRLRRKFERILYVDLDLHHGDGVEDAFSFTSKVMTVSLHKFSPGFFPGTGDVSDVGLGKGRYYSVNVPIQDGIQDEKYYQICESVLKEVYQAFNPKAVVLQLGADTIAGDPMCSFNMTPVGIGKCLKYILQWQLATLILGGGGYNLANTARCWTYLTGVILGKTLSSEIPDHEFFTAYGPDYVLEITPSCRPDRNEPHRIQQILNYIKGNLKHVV
HDAC6, sequence (Q9UBN7 whole entry): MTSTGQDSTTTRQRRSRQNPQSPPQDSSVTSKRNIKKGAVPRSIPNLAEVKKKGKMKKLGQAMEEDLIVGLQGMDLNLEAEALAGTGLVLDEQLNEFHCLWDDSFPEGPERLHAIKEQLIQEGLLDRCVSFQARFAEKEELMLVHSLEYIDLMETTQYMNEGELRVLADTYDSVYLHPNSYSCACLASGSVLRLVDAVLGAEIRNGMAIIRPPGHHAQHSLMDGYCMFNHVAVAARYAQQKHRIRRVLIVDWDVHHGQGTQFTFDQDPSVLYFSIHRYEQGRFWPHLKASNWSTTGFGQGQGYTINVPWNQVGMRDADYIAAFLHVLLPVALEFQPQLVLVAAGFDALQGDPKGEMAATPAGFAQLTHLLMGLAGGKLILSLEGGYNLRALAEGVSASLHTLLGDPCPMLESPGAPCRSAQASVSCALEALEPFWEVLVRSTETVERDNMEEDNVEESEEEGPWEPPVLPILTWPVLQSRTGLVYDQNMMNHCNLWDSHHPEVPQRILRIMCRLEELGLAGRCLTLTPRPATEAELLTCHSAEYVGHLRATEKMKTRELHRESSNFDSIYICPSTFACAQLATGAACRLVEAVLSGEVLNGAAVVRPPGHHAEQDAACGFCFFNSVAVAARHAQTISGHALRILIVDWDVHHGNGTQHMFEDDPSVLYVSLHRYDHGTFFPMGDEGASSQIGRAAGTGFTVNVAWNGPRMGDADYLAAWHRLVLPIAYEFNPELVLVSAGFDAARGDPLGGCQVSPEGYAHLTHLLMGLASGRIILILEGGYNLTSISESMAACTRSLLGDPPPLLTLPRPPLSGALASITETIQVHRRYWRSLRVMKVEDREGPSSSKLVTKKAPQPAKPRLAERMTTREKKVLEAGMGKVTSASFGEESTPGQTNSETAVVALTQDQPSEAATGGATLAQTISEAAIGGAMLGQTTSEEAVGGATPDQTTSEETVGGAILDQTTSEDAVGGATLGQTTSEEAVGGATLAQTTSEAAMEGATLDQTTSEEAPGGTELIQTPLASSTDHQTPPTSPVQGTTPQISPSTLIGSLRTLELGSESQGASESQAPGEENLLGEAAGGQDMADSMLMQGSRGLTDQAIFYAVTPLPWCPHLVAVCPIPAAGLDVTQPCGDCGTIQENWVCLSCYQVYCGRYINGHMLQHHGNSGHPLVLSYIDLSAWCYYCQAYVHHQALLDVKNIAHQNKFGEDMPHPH

With `O=C(NO)c1ccc2c(c1)CC(Nc1nccc(-c3ccc(N4CCOCC4)nc3)n1)CC2` (stereo not shown) [Example 31, 7-[4-(6-Morpholin-4-yl-pyridin-3-yl)-pyrimidin-2-ylamino]-5,6,7,8-tetrahydro-naphthalene-2-carboxylic acid hydroxyamide], in experiment [1], the “p21 RP3” value was 0.18, the “p21 RP10” value worked out at 0.19 and the “p21 RP30” value is 0.12. The EC50 on HDAC6 was found to be 6700 nM. Also, the half-maximal inhibitory concentration (IC50) at recombinant human HDAC8 came out at 320 nM.
Take `Cc1cc(Oc2ccccc2)nc(NC2CCc3ccc(C(=O)NO)cc3C2)n1` (stereo not shown) [Example 32, 7-(4-Methyl-6-phenoxy-pyrimidin-2-ylamino)-5,6,7,8-tetrahydro-naphthalene-2-carboxylic acid hydroxyamide]: in experiment [1], the “p21 RP3” value turned out to be 0.26, the “p21 RP10” value is 0.15 and the “p21 RP30” value was −0.04. Also, the concentration for a half-maximal effect (EC50) at HDAC6 came out at 5200 nM. In addition, the half-maximal inhibitory concentration (IC50) at recombinant human HDAC8 worked out at 1500 nM.
For `O=C(NO)c1ccc2c(c1)CC(Nc1nccc(-c3cnc4ccccc4c3)n1)CC2` (stereo not shown) [Example 34, 7-(4-Quinolin-3-yl-pyrimidin-2-ylamino)-5,6,7,8-tetrahydro-naphthalene-2-carboxylic acid hydroxyamide], in that order: 0.42, 0.31, −0.02, 7860 nM and 480 nM.
As to `O=C(NO)c1ccc2c(c1)CC(Nc1ncc3cc(F)ccc3n1)CC2` (stereo not shown) [Example 35, 7-(6-Fluoro-quinazolin-2-ylamino)-5,6,7,8-tetrahydro-naphthalene-2-carboxylic acid hydroxyamide], in experiment [1], the “p21 RP3” value was −0.86 and the “p21 RP10” value is recorded as −0.30. In addition, at HDAC6, the 50% effective concentration (EC50) turned out to be 930 nM. Further, the IC50 on recombinant human HDAC8 came to 1780 nM.
Regarding `O=C(NC1CCc2ccc(C(=O)NO)cc2C1)OCc1cccnc1` (stereo not shown) [Example 38], in experiment [1], the “p21 RP3” value was 0.15, the “p21 RP10” value was 0.05 and the “p21 RP30” value worked out at 0.02. Moreover, the half-maximal effective concentration (EC50) at HDAC6 stood at 930 nM. Besides, the 50% inhibitory concentration (IC50) on recombinant human HDAC8 was found to be 1270 nM.
For `CCCCS(=O)(=O)NC1CCc2ccc(C(=O)NO)cc2C1` (stereo not shown) [Example 39, 7-(Butane-1-sulfonylamino)-5,6,7,8-tetrahydro-naphthalene-2-carboxylic acid hydroxyamid], in that order: 0.08, 0.03, 0.04, 4200 nM and 910 nM.
For `O=C(NO)c1ccc2c(c1)CC(NS(=O)(=O)c1ccc(Cl)cc1)CC2` (stereo not shown) [Example 41, 7-(4-Chloro-benzenesulfonylamino)-5,6,7,8-tetrahydro-naphthalene-2-carboxylic acid hydroxyamide], in that order: −0.15, 0.35, 0.05, 1070 nM and 850 nM.
Taken in the same sequence, the figures for `O=C(NO)c1ccc2c(c1)CC(NS(=O)(=O)c1cccc(C(F)(F)F)c1)CC2` (stereo not shown) [Example 43, 7-(3-Trifluoromethyl-benzenesulfonylamino)-5,6,7,8-tetrahydro-naphthalene-2-carboxylic acid hydroxyamid] were 0.13, 0.08, −0.04, 3850 nM and 370 nM.
With `O=C(NO)c1ccc2c(c1)CC(NS(=O)(=O)c1ccc(F)cc1F)CC2` (stereo not shown) [Example 44, 7-(2,4-Difluoro-benzenesulfonylamino)-5,6,7,8-tetrahydro-naphthalene-2-carboxylic acid hydroxyamide], in experiment [1], the “p21 RP3” value is reported as 0.63, the “p21 RP10” value stood at 0.32 and the “p21 RP30” value amounted to 0.56. Besides, the EC50 on HDAC6 worked out at 3900 nM. At recombinant human HDAC8, the IC50 was found to be 210 nM.
Taken in the same sequence, the figures for `COc1ccc(S(=O)(=O)NC2CCc3ccc(C(=O)NO)cc3C2)cc1OC` (stereo not shown) [Example 45, 7-(3,4-Dimethoxy-benzenesulfonylamino)-5,6,7,8-tetrahydro-naphthalene-2-carboxylic acid hydroxyamide] were 0.18, 0.18, 0.46, 3430 nM and 390 nM.
For `O=C(NO)c1ccc2c(c1)CC(NS(=O)(=O)c1ccc(Cl)cc1Cl)CC2` (stereo not shown) [Example 46, 7-(2,4-Dichloro-benzenesulfonylamino)-5,6,7,8-tetrahydro-naphthalene-2-carboxylic acid hydroxyamide], in that order: 0.49, 0.15, 0.01, 4860 nM and 190 nM.
With `O=C(NO)c1ccc2c(c1)CC(NS(=O)(=O)c1ccc(Cl)c(Cl)c1)CC2` (stereo not shown) [Example 47, 7-(3,4-Dichloro-benzenesulfonylamino)-5,6,7,8-tetrahydro-naphthalene-2-carboxylic acid hydroxyamide], in experiment [1], the “p21 RP3” value was 0.08, the “p21 RP10” value amounted to 0.01 and the “p21 RP30” value is listed as −0.04. Also, at HDAC6, the EC50 was determined as 3420 nM. Further, the IC50 at recombinant human HDAC8 is 470 nM.
With `O=C(NO)c1ccc2c(c1)CC(NS(=O)(=O)c1cccnc1)CC2` (stereo not shown) [Example 48, 7-(Pyridine-3-sulfonylamino)-5,6,7,8-tetrahydro-naphthalene-2-carboxylic acid hydroxyamide], in experiment [1], the “p21 RP3” value is listed as 0.41, the “p21 RP10” value was 0.17 and the “p21 RP30” value was 0.17. Moreover, the EC50 on HDAC6 is 6200 nM. Besides, on recombinant human HDAC8, the IC50 came out at 370 nM.
`O=C(NO)c1cc2c(cc1F)CCC(Nc1nccc(-c3cccnc3)n1)C2` (stereo not shown) [Example 50, 3-Fluoro-7-(4-pyridin-3-yl-pyrimidin-2-ylamino)-5,6,7,8-tetrahydro-naphthalene-2-carboxylic acid hydroxyamide]: in experiment [1], the “p21 RP3” value turned out to be 0.26, the “p21 RP10” value was found to be 0.03 and the “p21 RP30” value is given as −0.01. For the same compound, on HDAC6, the EC50 worked out at 6430 nM. Also, on recombinant human HDAC8, the 50% inhibitory concentration (IC50) was found to be 1510 nM.
Take `O=C(NO)c1cc2c(cc1F)CCC(NS(=O)(=O)c1ccc(Cl)cc1)C2` (stereo not shown) [Example 51, 7-(4-Chloro-benzenesulfonylamino)-3-fluoro-5,6,7,8-tetrahydro-naphthalene-2-carboxylic acid hydroxyamide]: in experiment [1], the “p21 RP3” value was determined as 0.20, the “p21 RP10” value is listed as 0.03 and the “p21 RP30” value stood at 0.00. At HDAC6, the EC50 worked out at 5200 nM. In addition, the IC50 on recombinant human HDAC8 came to 1280 nM.
Consider `O=C(NO)c1cc2c(cc1F)CCC(NS(=O)(=O)c1cccc(Cl)c1)C2` (stereo not shown) [Example 52, 7-(3-Chloro-benzenesulfonylamino)-3-fluoro-5,6,7,8-tetrahydro-naphthalene-2-carboxylic acid hydroxyamide], for which, in experiment [1], the “p21 RP3” value worked out at 0.12, the “p21 RP10” value worked out at 0.01 and the “p21 RP30” value is −0.02. Also, the concentration giving a half-maximal response (EC50) at HDAC6 was 3740 nM. In addition, the IC50 on recombinant human HDAC8 worked out at 930 nM.

What is called EC50 is the concentration needed to bring the measured effect to its halfway point. As usually defined, the IC50 is the concentration that gives 50% inhibition.
